Calls of active or inactive are those of the source. The rule behind the calls is not given here.
Key:
MCF7 [1] = experiment: Induction of cell cycle arrest in human MCF7 cells assessed as accumulation at G2/M phase at 40 uM after 5 days by propidium iodide staining-based flow cytometry (reference value: 21.2 %); assay type: functional
MCF7 [2] = experiment: Induction of cell cycle arrest in human MCF7 cells assessed as increase in accumulation at Sub-G1 phase at 40 uM after 1 day by propidium iodide staining-based flow cytometry; assay type: functional
[3] = biological target: T1, Protein phosphatase 1D (Homo sapiens) (UniProt O15297); experiment: Inhibition of N-terminal histidine-tagged PPM1Dc at 4 uM after 10 mins by BIOMOL GREEN assay
T1 sequence (whole entry): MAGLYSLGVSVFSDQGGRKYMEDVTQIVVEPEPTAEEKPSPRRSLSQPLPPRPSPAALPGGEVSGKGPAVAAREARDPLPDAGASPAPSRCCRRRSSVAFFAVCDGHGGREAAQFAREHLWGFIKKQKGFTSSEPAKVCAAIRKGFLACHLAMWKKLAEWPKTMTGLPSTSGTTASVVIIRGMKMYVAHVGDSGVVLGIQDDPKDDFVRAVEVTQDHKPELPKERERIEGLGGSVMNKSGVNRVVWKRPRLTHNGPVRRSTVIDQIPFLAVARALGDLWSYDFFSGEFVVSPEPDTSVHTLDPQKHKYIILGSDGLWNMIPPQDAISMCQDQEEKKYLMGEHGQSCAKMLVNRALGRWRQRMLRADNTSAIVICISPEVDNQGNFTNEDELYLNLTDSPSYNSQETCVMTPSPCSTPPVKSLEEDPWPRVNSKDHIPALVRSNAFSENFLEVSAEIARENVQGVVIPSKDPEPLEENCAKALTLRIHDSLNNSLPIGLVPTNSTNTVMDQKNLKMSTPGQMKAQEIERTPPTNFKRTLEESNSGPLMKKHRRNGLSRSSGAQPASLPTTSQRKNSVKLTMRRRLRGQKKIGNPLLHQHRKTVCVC

MCF7 [4] = experiment: Induction of cell cycle arrest in human MCF7 cells assessed as accumulation at Sub-G1 phase at 40 uM after 5 days by propidium iodide staining-based flow cytometry (reference value: 8.1 %); assay type: functional
MCF7 [5] = experiment: Induction of cell cycle arrest in human MCF7 cells assessed as accumulation at Sub-G1 phase at 40 uM after 3 days by propidium iodide staining-based flow cytometry (reference value: 9.4 %); assay type: functional
MCF7 [6] = experiment: Induction of cell cycle arrest in human MCF7 cells assessed as accumulation at […] phase at 40 uM after 5 days by propidium iodide staining-based flow cytometry (reference value: 13.8 %); assay type: functional
MCF7 [7] = experiment: Induction of cell cycle arrest in human MCF7 cells assessed as accumulation at G2/M phase at 40 uM after 3 days by propidium iodide staining-based flow cytometry (reference value: 22.9 %); assay type: functional
[8] = Selectivity ratio for PPM1Dc over PPM1A
[9] = biological target: T2, Protein phosphatase 1A (Homo sapiens) (UniProt P35813); experiment: Inhibition of wild-type PPM1A expressed in BL21(DE3)pLysS cells at 40 uM after 10 mins by BIOMOL GREEN assay; assay type: cell-based
T2 sequence (whole entry): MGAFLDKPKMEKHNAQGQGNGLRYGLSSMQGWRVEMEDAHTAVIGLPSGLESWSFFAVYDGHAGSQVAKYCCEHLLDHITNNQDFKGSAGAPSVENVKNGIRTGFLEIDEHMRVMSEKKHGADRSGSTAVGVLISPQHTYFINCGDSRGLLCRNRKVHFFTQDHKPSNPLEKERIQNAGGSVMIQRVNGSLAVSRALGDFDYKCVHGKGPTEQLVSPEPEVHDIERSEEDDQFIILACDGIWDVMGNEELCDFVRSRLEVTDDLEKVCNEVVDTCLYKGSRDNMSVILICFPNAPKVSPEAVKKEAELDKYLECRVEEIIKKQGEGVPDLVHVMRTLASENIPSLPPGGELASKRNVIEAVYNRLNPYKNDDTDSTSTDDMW

MCF7 [10] = experiment: Antiproliferative activity against human MCF7 cells overexpressing PPM1D at 40 uM after 1 to 5 days by trypan blue assay; assay type: functional
[11] = Inhibition of PP2A using Ac-DDEMT(P)GYVATR-NH2 as substrate at 40 uM after 10 mins by BIOMOL GREEN assay
A549 = experiment: Antiproliferative activity against human A549 cells at 40 uM after 1 to 5 days by trypan blue assay; assay type: functional, cell-based
MCF7 [12] = experiment: Antiproliferative activity against human MCF7 cells overexpressing PPM1D after 1 to 5 days by trypan blue assay; assay type: functional, cell-based
MCF7 [13] = experiment: Induction of cell cycle arrest in human MCF7 cells assessed as accumulation at G1 phase at 40 uM after 3 days by propidium iodide staining-based flow cytometry (reference value: 38.5 %); assay type: functional
MCF7 [14] = experiment: Induction of cell cycle arrest in human MCF7 cells assessed as accumulation at […] phase at 40 uM after 3 days by propidium iodide staining-based flow cytometry (reference value: 29.3 %); assay type: functional
Protein phosphatase 1D = biological target: T3, Protein phosphatase 1D (Homo sapiens, UniProt O15297); experiment: Inhibition of N-terminal histidine-tagged PPM1Dc after 10 mins using BIOMOL GREEN assay
T3 sequence (O15297 whole entry): T1 sequence (whole entry)

MCF7 [15] = experiment: Induction of cell cycle arrest in human MCF7 cells assessed as accumulation at G1 phase at 40 uM after 5 days by propidium iodide staining-based flow cytometry (reference value: 57 %); assay type: functional
[16] = biological target: T1, Protein phosphatase 1D (Homo sapiens); experiment: Inhibition of PPM1D in human MCF7 cells assessed as increase in p53 phosphorylation at Ser15 by Western blot analysis; assay type: cell-based
MCF7 [17] = experiment: Increase in PPM1D protein expression in human MCF7 cells at 10 uM after 24 hrs by immunofluorescence analysis; assay type: functional, cell-based
[18] = biological target: T1, Protein phosphatase 1D (Homo sapiens); experiment: Inhibition of PPM1D in UV-irradiated human MCF7 cells assessed as increase in p53 phosphorylation at Ser15 measuring p53 protein level by Western blot analysis; assay type: cell-based
MCF7 [19] = experiment: Induction of cell cycle arrest in human MCF7 cells assessed as accumulation at G1 phase at 40 uM after 1 day by propidium iodide staining-based flow cytometry (reference value: 45.6 %); assay type: functional
MCF7 [20] = experiment: Induction of cell cycle arrest in human MCF7 cells assessed as accumulation at G2/M phase at 40 uM after 1 day by propidium iodide staining-based flow cytometry (reference value: 21.4 %); assay type: functional
MCF7 [21] = experiment: Induction of cell cycle arrest in human MCF7 cells assessed as accumulation at […] phase at 40 uM after 1 day by propidium iodide staining-based flow cytometry (reference value: 24 %); assay type: functional
MCF7 [22] = experiment: Induction of cell cycle arrest in human MCF7 cells assessed as accumulation at Sub-G1 phase at 40 uM by propidium iodide staining-based flow cytometry; assay type: functional; conditions: TDE = time-dependent effect
MCF7 [23] = experiment: Increase in PPM1D protein expression in human MCF7 cells by Western blot analysis; assay type: functional, cell-based

## CC[Si](CC)(CC)O[C@@H]1C[C@H](C)C[C@@H]2[C@@H]1C[C@H](O[Si](C)(C)C(C)(C)C)[C@@H]1[C@](C)(CO)C[C@H](O)C[C@@]21C
MCF7 [1]
  Activity: 12.9%
MCF7 [2]
  Activity: 5.3%
[3]
  inhibition: 97.1%
MCF7 [4]
  Activity: 25.3%
MCF7 [5]
  Activity: 16.4%
MCF7 [6]
  Activity: 15%
MCF7 [7]
  Activity: 28.2%
[8]
  Selectivity ratio: 50
[9]
  inhibition: 68%
MCF7 [10]
  Activity: >60%
[11]
  inhibition: 11%
A549
  Activity: inactive
MCF7 [12]
  Activity: Dose-dependent effect
MCF7 [13]
  Activity: 39.3%
MCF7 [14]
  Activity: 16%
Protein phosphatase 1D
  IC50: 480 nM
MCF7 [15]
  Activity: 46.8%
[16]
  inhibition: Active
MCF7 [17]
  Activity: Active
[18]
  inhibition: Active
MCF7 [19]
  Activity: 39%
MCF7 [20]
  Activity: 16.8%
MCF7 [21]
  Activity: 29.8%
MCF7 [22]
  Activity: tde
MCF7 [23]
  Activity: Active

## C[C@H]1C[C@@H](O)[C@H]2C[C@H](O)[C@@H]3[C@](C)(CO)C[C@H](O)C[C@@]3(C)[C@@H]2C1
[3]
  inhibition: 6.3%
MCF7 [10]
  Activity: inactive

## CC[Si](CC)(CC)O[C@@H]1C[C@H](C)C[C@@H]2[C@@H]1C[C@H](O[Si](C)(C)C(C)(C)C)[C@@H]1[C@](C)(CO)CC(=O)C[C@@]21C
[3]
  inhibition: 79.4%

## C[C@H]1C[C@@H](O)[C@H]2C[C@H](O[Si](C)(C)C(C)(C)C)[C@@H]3[C@](C)(CO)C[C@H](O)C[C@@]3(C)[C@@H]2C1
[3]
  inhibition: 25.1%

## CC[Si](CC)(CC)O[C@@H]1C[C@H](C)C[C@@H]2[C@@H]1C[C@H](O[Si](C)(C)C(C)(C)C)[C@H]1[C@@]2(C)C[C@@H]2C[C@@]1(C)C(O)O2 (stereo not given in full)
[3]
  inhibition: 87.1%

Reference: ChEMBL document CHEMBL1938369, “A small molecule inhibitor of p53-inducible protein phosphatase PPM1D” (Bioorg Med Chem Lett, 2012)
